{
  "source": "patent US20160000731A1",
  "about": "“SORE-THROAT COMPOSITIONS AND RELATED METHODS” (Xlear, Inc., priority 2014, published 2016)",
  "origin": "cited, not measured here",
  "key": {"dental caries": {"system": "dental caries", "settings": "regular consumption"}, "Streptococcus pneumonia": {"system": "Streptococcus pneumonia", "settings": "in vitro, during its logarithmic growth phase"}},
  "data": [
    {"compound": "OC[C@@H](O)[C@H](O)[C@@H](O)CO", "note": "[Xylitol]", "values": [
      {"measurement": "incidence of dental caries", "setting": "dental caries", "value": "reduce the incidence of dental caries"},
      {"measurement": "growth of Streptococcus pneumonia", "setting": "Streptococcus pneumonia", "value": "inhibit the growth"}
    ]}
  ]
}
